Laboratory results: patent publication US20040092547A1, “Alkyl-[4-(difluorophenyl)-oxazol-5-yl]-triazolo-pyridines” (Pfizer Inc, priority 2002, published 2004)

CC(C)c1nnc2ccc(-c3ocnc3-c3c(F)cccc3F)cn12 [Example 1, 6-[4-(2,6-Difluoro-phenyl)-oxazol-5-yl]-3-isopropyl-[1,2,4]triazolo[4,3-a]pyridine]
melting point: 175.7 to 176.2 °C
